Data as given in patent US7604975B2, “Glycosylated LPXTGases and uses thereof” (priority 2002, dated 2009).
Where two headings read alike, the source gives them in different places.

How the values were obtained:
[1] = test system: LPXTGase; type: biochemical, Streptococcus pyogenes; conditions: for peptide cleaved, cpm: 40 mM Tris-HCl pH 7.6, 0.1% Brij 35, control 41,530 cpm
Experimental: Enzyme Assay Method: Aliquots (10 μl) were removed from the column fractions and added to 1.5 ml Microfuge tubes. To each tube was added 30 μl of 40 mM Tris-HCl buffer, pH 7.6, containing 0.1% Brij 35, followed by a 10 μl suspension of bead-bound LPXTG-peptide substrate (0.5 to 0.8 μg, 100,000 to 200,000 cpm). The reaction mixture was incubated with vigorous shaking for 60 min at 37° C. After this time, 100 μl of water was added to each tube, and after vortex mixing, the mixture was centrifuged at 10,000 rpm for 5 min to pellet the beads. 100 μl of the supernatant was withdrawn and radioactivity was counted with a gamma counter.
The LPXTGase was exposed to a variety of salts and its activity tested for cleavage of the LPXTG (SEQ ID NO:1)-containing peptide.

[2] = test system: LPXTGase; experiment: Periodate treatment of LPXTGase, enzyme activity measured; type: biochemical, Streptococcus pyogenes; conditions: 5 mM periodate, 20 mM phosphate buffer pH 6, 4 hrs at 4° C.
Experimental: Carbohydrate composition of LPXTGase. The carbohydrate composition of purified LPXTGase was determined by the Rockefeller University Analytical Service Laboratory using a Waters 490 HPLC system. […] It seemed plausible that the charged amino acids of the enzyme are internalized and the hydrophobic amino acids are located on the exterior surface in view of the fact that the enzyme is likely to be associated with the cell membrane. […] To test this, the enzyme was incubated with 5 mM of periodate in 20 mM phosphate buffer, pH 6, for 4 hrs at 4° C., and enzyme activity was measured.

[3] = test system: trypsin; experiment: Periodate treatment of trypsin, enzyme activity measured; type: biochemical; conditions: identical manner (5 mM periodate, pH 6, 4 hrs at 4° C.)
[4] = 100 mM salt, one hour at 37° C.

With `[Ca+2].[Cl-].[Cl-]` [Calcium chloride] the “% of control (LPXTGase activity)” value [1] was 23% and the “peptide cleaved, cpm” value ([1]; 20 mM salt, one hour at 37° C.) was 9,706 cpm.

`O=S(=O)([O-])[O-].[Na+].[Na+]` [Sodium sulfate] was tested, and the “% of control (LPXTGase activity)” value [1] was 57% and the “peptide cleaved, cpm” value ([1]; 20 mM salt, one hour at 37° C.) was 23,454 cpm.

For `[Cl-].[K+]` [Potassium chloride], the “peptide cleaved, cpm” value [1, 4] was 8,608 cpm and the “% of control (LPXTGase activity)” value [1, 4] was 20%.

In the case of `O=C(O)CN(CCN(CC(=O)O)CC(=O)O)CC(=O)O` [EDTA], the “% of control (LPXTGase activity)” value [1] was 5.2% and the “peptide cleaved, cpm” value ([1]; 20 mM salt, one hour at 37° C.) was 2,147 cpm.

For `[Cl-].[Cl-].[Mg+2]` [Magnesium chloride], the “% of control (LPXTGase activity)” value [1] was 20% and the “peptide cleaved, cpm” value ([1]; 20 mM salt, one hour at 37° C.) was 8,615 cpm.

In the case of `Cl.Cl.NCCCCN` [Putrescene chloride], the “peptide cleaved, cpm” value ([1]; 20 mM salt, one hour at 37° C.) was 8,710 cpm and the “% of control (LPXTGase activity)” value ([1]; 20 mM salt, one hour at 37° C.) was 21%.

With `[O-][I+3]([O-])([O-])O` [periodate] the “effect of periodate treatment on LPXTGase enzyme activity” value [2] was “nearly completely abolished the enzyme activity” and the “effect of periodate treatment on trypsin enzyme activity” value [3] was “no effect”.

`[Cl-].[Na+]` [Sodium chloride] was tested, and the “peptide cleaved, cpm” value [1, 4] was 6,720 cpm and the “% of control (LPXTGase activity)” value [1, 4] was 16%.

For `Cl.NO` [Hydroxylamine-HCl], the “% of control (LPXTGase activity)” value [1] was 27%, the “effect on LPXTGase activity (general statement)” value [1] was “inhibited” and the “peptide cleaved, cpm” value [1, 4] was 11,200 cpm.

With `O=P(O)(O)O` [Sodium phosphate] the “% of control (LPXTGase activity)” value [1] was 49% and the “peptide cleaved, cpm” value ([1]; 20 mM salt, one hour at 37° C.) was 20,646 cpm.
